Measurements published in US20260138976A1 (Hoffmann-La Roche Inc., priority 2022, published 2026).
pEC50, pIC50: −log10 of the molar value.

Experiments:
[1] = target: T1, DGKα (hDGKalpha(1-735)-N-His) (Homo sapiens, UniProt P23743); assay: In vitro DGK inhibition assay, DGKalpha ADP Glo (in house); type: biochemical; conditions: 4 nM DGKα, 25 μM ATP, 125 uM DLG in liposomes, 1 hour reaction
T1 construct: hDGKalpha(1-735)-N-His; His (N); made in house; host or cells: Sf21 insect cells (baculovirus)
T1 sequence (P23743 whole entry): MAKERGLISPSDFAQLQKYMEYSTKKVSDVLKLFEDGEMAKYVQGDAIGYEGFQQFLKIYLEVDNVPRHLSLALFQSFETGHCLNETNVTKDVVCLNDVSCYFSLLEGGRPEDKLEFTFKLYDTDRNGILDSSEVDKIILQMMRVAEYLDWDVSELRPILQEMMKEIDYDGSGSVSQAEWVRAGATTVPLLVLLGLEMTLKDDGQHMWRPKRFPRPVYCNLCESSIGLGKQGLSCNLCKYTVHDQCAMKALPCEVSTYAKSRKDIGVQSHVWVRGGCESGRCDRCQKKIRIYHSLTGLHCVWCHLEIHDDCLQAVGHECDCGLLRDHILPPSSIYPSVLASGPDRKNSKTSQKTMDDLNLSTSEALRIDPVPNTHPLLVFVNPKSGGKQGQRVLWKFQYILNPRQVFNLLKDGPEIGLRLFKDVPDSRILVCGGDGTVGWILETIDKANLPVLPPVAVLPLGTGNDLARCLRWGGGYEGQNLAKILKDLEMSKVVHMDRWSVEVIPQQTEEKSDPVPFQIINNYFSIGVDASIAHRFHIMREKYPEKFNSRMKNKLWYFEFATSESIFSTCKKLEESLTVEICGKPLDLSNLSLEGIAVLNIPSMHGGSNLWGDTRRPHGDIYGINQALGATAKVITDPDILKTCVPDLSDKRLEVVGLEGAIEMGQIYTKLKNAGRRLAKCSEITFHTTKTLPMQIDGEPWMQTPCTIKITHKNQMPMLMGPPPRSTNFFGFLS
Summary of the method: (§1)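 Full-length His-tagged human DGKα (4 nM) or DGKζ (2 nM), expressed in Sf21 cells, phosphorylated 125 µM DLG in PS/PC liposomes with ATP at 25 µM (α) or 50 µM (ζ) for 1 h. ADP was measured by ADP-Glo luminescence. Compounds were tested as 11-point 1:3 series in 2% DMSO.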

[2] = target: T2, DGKζ (hDGKzeta(1-928)-N-His) (Homo sapiens, UniProt Q13574); assay: In vitro DGK inhibition assay, DGKzeta ADP Glo (in house); type: biochemical; conditions: 2 nM DGKζ, 50 μM ATP, 125 uM DLG in liposomes, 1 hour reaction
T2 construct: hDGKzeta(1-928)-N-His; His (N); made in house; host or cells: Sf21 insect cells (baculovirus)
T2 sequence (Q13574 whole entry): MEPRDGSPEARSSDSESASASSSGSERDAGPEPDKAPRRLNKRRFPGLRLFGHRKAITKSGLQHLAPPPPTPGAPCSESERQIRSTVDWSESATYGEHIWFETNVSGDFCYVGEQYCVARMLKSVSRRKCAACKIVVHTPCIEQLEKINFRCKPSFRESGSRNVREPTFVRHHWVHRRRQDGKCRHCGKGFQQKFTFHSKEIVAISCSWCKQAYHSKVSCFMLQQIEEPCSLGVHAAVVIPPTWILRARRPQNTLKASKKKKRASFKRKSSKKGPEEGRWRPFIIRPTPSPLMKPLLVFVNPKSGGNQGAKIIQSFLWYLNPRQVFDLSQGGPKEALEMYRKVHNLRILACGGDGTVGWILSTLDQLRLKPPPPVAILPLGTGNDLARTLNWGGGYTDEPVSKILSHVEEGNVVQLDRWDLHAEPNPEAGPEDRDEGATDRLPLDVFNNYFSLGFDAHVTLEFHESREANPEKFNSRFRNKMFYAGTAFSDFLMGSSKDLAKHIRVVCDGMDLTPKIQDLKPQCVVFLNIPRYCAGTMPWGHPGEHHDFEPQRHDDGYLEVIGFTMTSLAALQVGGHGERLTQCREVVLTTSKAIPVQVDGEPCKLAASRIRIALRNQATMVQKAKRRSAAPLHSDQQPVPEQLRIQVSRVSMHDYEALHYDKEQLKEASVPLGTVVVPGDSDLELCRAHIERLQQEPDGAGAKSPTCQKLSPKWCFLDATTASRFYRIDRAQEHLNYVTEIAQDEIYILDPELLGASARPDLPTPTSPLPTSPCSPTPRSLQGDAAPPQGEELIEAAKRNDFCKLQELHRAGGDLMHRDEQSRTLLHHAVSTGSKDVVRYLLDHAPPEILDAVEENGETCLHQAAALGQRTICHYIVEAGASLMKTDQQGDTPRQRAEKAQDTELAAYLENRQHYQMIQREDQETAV
Summary of the method: as §1

primary human T-cells = assay: IL2 secretion measurements (24 h, CD3-stimulated T-cells, PBS counter screen); type: cell-based; conditions: for Emax IL2 (% activation): CD3 condition, normalised to DMSO (neutral) and 20 μM reference compound A1 = 100%; for pEC50: Homo sapiens, T-cell, CD3-stimulated primary human T-cells, IL2 secretion, fitted sigmoidal curve, read-out: Tcell IL2 CD3 EC50
Summary of the method: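 Expanded primary human T-cells (100k/well) were plated on anti-CD3-coated or PBS-only plates with compound in a 5–6 point dose response (top 20 or 10 μM final, 3.333-fold, 0.2% DMSO). IL-2 in 24 h supernatants was quantified by ProQuantum immunoassay or ELISA. Values were normalized to DMSO and 20 μM reference compound A1 (100%), giving EC50 and Emax.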

Compound | pIC50 [1] | pIC50 [2] | Emax IL2 (% activation) (primary human T-cells) | pEC50 (primary human T-cells)
N[C@H]1CS(=O)(=O)c2ccc(-c3nnc(C4(C5CC5)CCCO4)o3)cc2N(Cc2ccc(-c3nnc(C(F)(F)F)o3)cc2)C1=O (stereo partly drawn) [Example 97, (3R)-3-amino-7-[5-(2-cyclopropyltetra-hydrofuran-2-yl)-1,3,4-oxadiazol-2-yl]-1,1-dioxo-5-[[4-[5-(trifluoromethyl)-1,3,4-oxadiazol-2-yl]phenyl]methyl]-2,3-dihydro-1λ6,5-benzothiazepin-4-one] | 5.33 | 5.68 | 115 | 5.20
CC(c1nc(-c2ccc(CN3C(=O)[C@@H](N)CS(=O)(=O)c4ccc(-c5nnc(C6(N)CCCCC6)o5)cc43)cc2)no1)C(F)(F)F (stereo partly drawn) [Example 98, (3R)-3-amino-7-[5-(1-aminocyclohexyl)-1,3,4-oxadiazol-2-yl]-1,1-dioxo-5-[[4-[5-(2,2,2-trifluoro-1-methyl-ethyl)-1,2,4-oxadiazol-3-yl]phenyl]methyl]-2,3-dihydro-1λ^6,5-benzothiazepin-4-one] | 4.62 | 5.99 | 97 | 5.86
CC(C)(C#N)c1nnc(-c2ccc3c(c2)N(Cc2ccc(-n4ccc(C(F)(F)F)n4)cc2)C(=O)[C@@H](N)CS3(=O)=O)o1 [Example 121, 2-[5-[(3R)-3-amino-1,1,4-trioxo-5-[[4-[3-(trifluoromethyl)pyrazol-1-yl]phenyl]methyl]-2,3-dihydro-1λ^6,5-benzothiazepin-7-yl]-1,3,4-oxadiazol-2-yl]-2-methyl-propanenitrile] | < 5.20 | 6.12 | 207 | 6.14
CC(C)(C#N)c1nnc(-c2ccc3c(c2)N(Cc2ccc(-c4ccc(OC(F)(F)F)cn4)cc2)C(=O)[C@@H](N)CS3(=O)=O)o1 [Example 124] | 5.62 | 6.10 | 154 | 6.56
CC1(c2nnc(-c3ccc4c(c3)N(Cc3ccc(-c5noc(C(F)(F)F)n5)cc3)C(=O)[C@@H](N)CS4(=O)=O)o2)COC1 [Example 149, (3R)-3-amino-7-[5-(3-methyloxetan-3-yl)-1,3,4-oxadiazol-2-yl]-1,1-dioxo-5-[[4-[5-(trifluoromethyl)-1,2,4-oxadiazol-3-yl]phenyl]methyl]-2,3-dihydro-1λ^6,5-benzothiazepin-4-one] | < 4.20 | 5.37 | 268 | 6.25
CC1(c2nnc(-c3ccc4c(c3)N(Cc3ccc(-c5ccc(C(F)(F)F)cn5)cc3)C(=O)[C@@H](N)CS4(=O)=O)o2)COC1 [Example 150, (3R)-3-amino-7-[5-(3-methyloxetan-3-yl)-1,3,4-oxadiazol-2-yl]-1,1-dioxo-5-[[4-[5-(trifluoromethyl)-2-pyridyl]phenyl]methyl]-2,3-dihydro-1λ^6,5-benzothiazepin-4-one] | < 4.70 | 5.00 | 35 | < 5.00
C[C@@](N)(c1nnc(-c2ccc3c(c2)N(Cc2ccc(-n4ccc(C(F)(F)F)n4)cc2)C(=O)[C@@H](N)CS3(=O)=O)o1)C(F)(F)F [Example 157, (3R)-3-amino-7-[5-[(1R)-1-amino-2,2,2-trifluoro-1-methyl-ethyl]-1,3,4-oxadiazol-2-yl]-1,1-dioxo-5-[[4-[3-(trifluoromethyl)pyrazol-1-yl]phenyl]methyl]-2,3-dihydro-1λ^6,5-benzothiazepin-4-one] | 4.38 | 5.64 | 106 | 5.75
COC(=O)N1CC2CC(c3nnc(-c4ccc5c(c4)N(Cc4ccc(-c6ccc(C(F)(F)F)cn6)cc4)C(=O)[C@@H](N)CS5(=O)=O)o3)(C2)C1 [Example 159, methyl 1-[5-[(3R)-3-amino-1,1,4-trioxo-5-[[4-[5-(trifluoromethyl)-2-pyridyl]phenyl]methyl]-2,3-dihydro-1λ^6,5-benzothiazepin-7-yl]-1,3,4-oxadiazol-2-yl]-3-azabicyclo[3.1.1]heptane-3-carboxylate] | 5.71 | 5.87 | 188 | 6.04
N[C@H]1CS(=O)(=O)c2ccc(-c3nnc(N4CCC(F)(F)CC4)o3)cc2N(Cc2ccc(-c3nc(C(F)(F)F)no3)cc2)C1=O [Example 161, (3R)-3-amino-7-[5-(4,4-difluoro-1-piperidyl)-1,3,4-oxadiazol-2-yl]-1,1-dioxo-5-[[4-[3-(trifluoromethyl)-1,2,4-oxadiazol-5-yl]phenyl]methyl]-2,3-dihydro-1λ^6,5-benzothiazepin-4-one] | < 4.20 | 5.72 | 150 | 5.49
N#CC1CN(c2nnc(-c3ccc4c(c3)N(Cc3ccc(-c5noc(C(F)(F)F)n5)cc3)C(=O)[C@@H](N)CS4(=O)=O)o2)CCO1 (stereo partly drawn) [Example 163, 4-[5-[(3R)-3-amino-1,1,4-trioxo-5-[[4-[5-(trifluoromethyl)-1,2,4-oxadiazol-3-yl]phenyl]methyl]-2,3-dihydro-1λ^6,5-benzothiazepin-7-yl]-1,3,4-oxadiazol-2-yl]morpholine-2-carbonitrile] | < 4.20 | 4.97 | 152 | 5.62
COCC1CN(c2nnc(-c3ccc4c(c3)N(Cc3ccc(-c5noc(C(F)(F)F)n5)cc3)C(=O)[C@@H](N)CS4(=O)=O)o2)CCO1 (stereo partly drawn) [Example 164, (3R)-3-amino-7-[5-[2-(methoxymethyl)morpholin-4-yl]-1,3,4-oxadiazol-2-yl]-1,1-dioxo-5-[[4-[5-(trifluoromethyl)-1,2,4-oxadiazol-3-yl]phenyl]methyl]-2,3-dihydro-1λ^6,5-benzothiazepin-4-one] | < 4.20 | 5.69 | 156 | 5.48
CC(C)(c1nnc(-c2ccc3c(c2)N(Cc2ccc(-c4noc(C(F)(F)F)n4)cc2)C(=O)[C@@H](N)CS3(=O)=O)o1)C(F)(F)F [Example 166] | 5.52 | 5.76 | 385 | 6.80
CC(C)(c1nnc(-c2ccc3c(c2)N(Cc2ccc(-c4noc(C5CC5)n4)cc2)C(=O)[C@@H](N)CS3(=O)=O)o1)C(F)(F)F [Example 167, (3R)-3-amino-5-[[4-(5-cyclopropyl-1,2,4-oxadiazol-3-yl)phenyl]methyl]-1,1-dioxo-7-[5-(2,2,2-trifluoro-1,1-dimethyl-ethyl)-1,3,4-oxadiazol-2-yl]-2,3-dihydro-1λ^6,5-benzothiazepin-4-one] | < 4.20 | 6.03 | 279 | 6.20
CCC(O)(c1nnc(-c2ccc3c(c2)N(Cc2ccc(-c4noc(C5CC5)n4)cc2)C(=O)[C@@H](N)CS3(=O)=O)o1)C(F)(F)F (some centres unmarked) [Example 169] | < 4.70 | 5.75 | 128 | 5.50
CCN1CC(c2nnc(-c3ccc4c(c3)N(Cc3ccc(-c5noc(C(C)(C)C)n5)cc3)C(=O)[C@@H](N)CS4(=O)=O)o2)CC(F)(F)C1 (stereo partly drawn) [Example 181, (3R)-3-amino-5-[[4-(5-tert-butyl-1,2,4-oxadiazol-3-yl)phenyl]methyl]-7-[5-(1-ethyl-5,5-difluoro-3-piperidyl)-1,3,4-oxadiazol-2-yl]-1,1-dioxo-2,3-dihydro-1λ^6,5-benzothiazepin-4-one] | < 4.20 | 6.70 | 66 | 5.16
COCCN1CC(c2nnc(-c3ccc4c(c3)N(Cc3ccc(-c5noc(C(F)(F)F)n5)cc3)C(=O)[C@@H](N)CS4(=O)=O)o2)CC(F)(F)C1 (stereo partly drawn) [Example 182, (3R)-3-amino-7-[5-[5,5-difluoro-1-(2-methoxyethyl)-3-piperidyl]-1,3,4-oxadiazol-2-yl]-1,1-dioxo-5-[[4-[5-(trifluoromethyl)-1,2,4-oxadiazol-3-yl]phenyl]methyl]-2,3-dihydro-1λ^6,5-benzothiazepin-4-one] | < 4.20 | 5.70 | 149 | 5.49
COCCN1CC(c2nnc(-c3ccc4c(c3)N(Cc3ccc(-c5ccc(OC)cc5)cc3)C(=O)[C@@H](N)CS4(=O)=O)o2)CC(F)(F)C1 (stereo partly drawn) [Example 183, (3R)-3-amino-7-[5-[5,5-difluoro-1-(2-methoxyethyl)-3-piperidyl]-1,3,4-oxadiazol-2-yl]-5-[[4-(4-methoxyphenyl)phenyl]methyl]-1,1-dioxo-2,3-dihydro-1λ^6,5-benzothiazepin-4-one] | < 4.20 | 6.01 | 69 | 5.19
